EC50 data for 27 compounds are collected here from patent US9403808B2, “Pyrazine derivatives” (Hoffmann-La Roche Inc., priority 2011, dated 2016).

In test [1] the target is human CB1 receptors (Homo sapiens (Human), UniProt P21554). The test is described as follows: functional cAMP assay, CB1. Format: cell-based. The note with it: functional cAMP assay, CHO cells expressing human CB1; read-out: human CB1 EC50. Here is the method: (§1) CHO cells expressing human CB1 or CB2 receptors are seeded 17-24 hours prior to the experiment 50.000 cells per well in a black 96 well plate with flat clear bottom (Corning Costar #3904) in DMEM (Invitrogen No. 31331), 1×HT supplement, with 10% fetal calf serum and incubated at 5% CO2 and 37° C. in a humidified incubator. The growth medium was exchanged with Krebs Ringer Bicarbonate buffer with 1 mM IBMX and incubated at 30° C. for 30 min. Compounds were added to a final assay volume of 100 μl and incubated for 30 min at 30° C. Using the cAMP-Nano-TRF detection kit the assay (Roche Diagnostics) was stopped by the addition of 50 μl lysis reagent (Tris, NaCl, 1.5% Triton X100, 2.5% NP40, 10% NaN3) and 50 μl detection solutions (20 μM mAb Alexa700-cAMP 1:1, and 48 μM Ruthenium-2-AHA-cAMP) and shaken for 2 h at room temperature. The time-resolved energy transfer is measured by a TRF reader (Evotec Technologies GmbH), equipped with a ND:YAG laser as excitation source. The plate is measured twice with the excitation at 355 nm and at the emission with a delay of 100 ns and a gate of 100 ns, total exposure time 10s at 730 (bandwidth 30 nm) or 645 nm (bandwidth 75 nm), respectively. The FRET signal is calculated as follows: FRET=T730-Alexa730-P(T645-B645) with P=Ru730-B730/Ru645-B645, where T730 is the test well measured at […], T645 is the test well measured at 645 nm, B730 and B645 are the buffer controls at 730 nm and 645 nm, respectively. cAMP content is determined from the function of a standard curve spanning from 10 μM to 0.13 nM cAMP.
Sequence of human CB1 receptors (P21554 whole entry): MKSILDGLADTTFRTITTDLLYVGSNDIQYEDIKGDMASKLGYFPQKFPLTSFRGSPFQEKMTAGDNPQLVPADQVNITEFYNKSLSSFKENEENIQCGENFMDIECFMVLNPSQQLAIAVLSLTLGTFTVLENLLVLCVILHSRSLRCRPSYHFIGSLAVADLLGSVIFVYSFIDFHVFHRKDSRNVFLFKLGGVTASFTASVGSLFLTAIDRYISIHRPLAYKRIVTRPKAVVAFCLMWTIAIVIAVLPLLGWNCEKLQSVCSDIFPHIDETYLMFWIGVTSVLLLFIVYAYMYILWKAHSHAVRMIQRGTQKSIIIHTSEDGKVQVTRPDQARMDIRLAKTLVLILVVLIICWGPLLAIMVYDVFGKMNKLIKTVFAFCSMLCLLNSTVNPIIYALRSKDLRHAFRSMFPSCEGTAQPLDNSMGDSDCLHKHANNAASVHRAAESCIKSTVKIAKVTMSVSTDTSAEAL
(§2) EC50 values were determined using Activity Base analysis (ID Business Solution, Limited). The EC50 values for a wide range of cannabinoid agonists generated from this assay were in agreement with the values published in the scientific literature.
(In general: Cyclic AMP is a second messenger, typically raised through Gs and lowered through Gi signalling.)

Test [2] addresses human CB2 receptors (Homo sapiens (Human), UniProt P34972). The test is described as follows: functional cAMP assay, CB2. It is filed as cell-based. Here is the method:
as §1, §2

[3] abbreviates: functional cAMP assay, CHO cells expressing human CB2, read-out: human CB2 EC50.

Like-named read-outs stand apart in the source and are kept apart here. Bounds are passed on as bounds.

Sequence of human CB2 receptors (P34972 whole entry): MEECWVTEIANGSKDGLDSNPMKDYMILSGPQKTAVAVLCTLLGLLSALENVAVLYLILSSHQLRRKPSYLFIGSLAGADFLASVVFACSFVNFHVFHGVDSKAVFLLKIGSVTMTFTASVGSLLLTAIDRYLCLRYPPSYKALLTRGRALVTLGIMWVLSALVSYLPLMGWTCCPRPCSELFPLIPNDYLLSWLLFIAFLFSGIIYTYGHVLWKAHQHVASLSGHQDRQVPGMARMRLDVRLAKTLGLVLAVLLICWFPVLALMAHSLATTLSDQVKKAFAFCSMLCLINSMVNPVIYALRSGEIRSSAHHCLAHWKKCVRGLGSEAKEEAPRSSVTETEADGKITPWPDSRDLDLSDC

In the case of `CNC(=O)[C@H](CC1CC1)NC(=O)c1cnc(N2CC(F)(F)C2)c(OCC2CC2)n1` [Example 31, 6-Cyclopropylmethoxy-5-(3,3-difluoro-azetidin-1-yl)-pyrazine-2-carboxylic acid ((S)-2-cyclopropyl-1-methylcarbamoyl-ethyl)-amide], the 50% effective concentration (EC50) in test [1] is more than 10000 nM; in test [2] (setting [3]) it was 124 nM. Take `NC(=O)[C@@H](NC(=O)c1cnc(C2CC2)c(OCC2CC2)n1)c1ccccc1` [Example 15, 5-Cyclopropyl-6-cyclopropylmethoxy-pyrazine-2-carboxylic acid ((S)-carbamoyl-phenyl-methyl)-amide]: the EC50 in test [1] is more than 10000 nM; in test [2] (setting [3]), 141 nM. For `NC(=O)CC1(NC(=O)c2cnc(N3CC(F)(F)C3)c(OCC3CC3)n2)COC1` [Example 85, 6-Cyclopropylmethoxy-5-(3,3-difluoro-azetidin-1-yl)-pyrazine-2-carboxylic acid (3-carbamoylmethyl-oxetan-3-yl)-amide], in that order: more than 10000 nM and 5.8 nM. Turning to `CC(C)[C@H](CC(N)=O)NC(=O)c1cnc(C2CC2)c(OCC2CC2)n1` [Example 76, 5-Cyclopropyl-6-cyclopropylmethoxy-pyrazine-2-carboxylic acid ((S)-1-carbamoylmethyl-2-methyl-propyl)-amide], the half-maximal effective concentration (EC50) in test [2] (setting [3]) stood at 16.3 nM. In the case of `NC(=O)[C@H](CC1CC1)NC(=O)c1cnc(C2CC2)c(OCC2CC2)n1` [Example 28, 5-Cyclopropyl-6-cyclopropylmethoxy-pyrazine-2-carboxylic acid ((S)-1-carbamoyl-2-cyclopropyl-ethyl)-amide], the concentration for a half-maximal effect (EC50) was more than 10000 nM in test [1] and 43.5 nM in test [2] (setting [3]). For `CN(C)C(=O)C(CC1CCC1)NC(=O)c1cnc(C2CC2)c(OCC2CC2)n1` (stereo not shown) [Example 103, 5-Cyclopropyl-6-cyclopropylmethoxy-pyrazine-2-carboxylic acid (2-cyclobutyl-1-dimethylcarbamoyl-ethyl)-amide], in that order: more than 10000 nM and 19.2 nM. `NC(=O)[C@H]1CCCC[C@H]1NC(=O)c1cnc(C2CC2)c(OCC2CC2)n1` [Example 83]: the 50% effective concentration (EC50) in test [2] (setting [3]) turned out to be 44.4 nM. `Cc1nc(C(C)(NC(=O)c2cnc(N3CC(F)(F)C3)c(OCC3CC3)n2)C2CC2)no1` (stereo not shown) [Example 61, 6-Cyclopropylmethoxy-5-(3,3-difluoro-azetidin-1-yl)-pyrazine-2-carboxylic acid [1-cyclopropyl-1-(5-methyl-[1,2,4]oxadiazol-3-yl)-ethyl]-amide]: the half-maximal effective concentration (EC50) was more than 10000 nM in test [1] and 17.9 nM in test [2] (setting [3]). For `CC(C)C(NC(=O)c1cnc(N2CC(F)(F)C2)c(OCC2CC2)n1)C(=O)N(C)C` (stereo not shown) [Example 91, 6-Cyclopropylmethoxy-5-(3,3-difluoro-azetidin-1-yl)-pyrazine-2-carboxylic acid (1-dimethylcarbamoyl-2-methyl-propyl)-amide], in that order: more than 10000 nM and 20.5 nM. For `Cc1nc(C(C)(C)NC(=O)c2cnc(N3CC(F)(F)C3)c(-c3cccc(Cl)c3)n2)no1` [Example 4, 6-(3-Chloro-phenyl)-5-(3,3-difluoro-azetidin-1-yl)-pyrazine-2-carboxylic acid [1-methyl-1-(5-methyl-[1,2,4]oxadiazol-3-yl)-ethyl]-amide], in that order: more than 10000 nM and 108 nM.

Turning to `CC(C)(C#N)NC(=O)c1cnc(C2CC2)c(-c2cccc(Cl)c2)n1` [Example 2, 6-(3-Chloro-phenyl)-5-cyclopropyl-pyrazine-2-carboxylic acid (cyano-dimethyl-methyl)-amide], the EC50 is more than 10000 nM in test [1] and 104 nM in test [2] (setting [3]). As to `Cc1nc(C2(NC(=O)c3cnc(C4CC4)c(-c4cccc(Cl)c4)n3)CCC2)no1` [Example 3, 6-(3-Chloro-phenyl)-5-cyclopropyl-pyrazine-2-carboxylic acid [1-(5-methyl-[1,2,4]oxadiazol-3-yl)-cyclobutyl]-amide], the EC50 in test [1] was more than 10000 nM; in test [2] (setting [3]), 156 nM. As for `COC(=O)C1(NC(=O)c2cnc(N3CC(F)(F)C3)c(OCC3CC3)n2)CCC1` [Example 73, 1-{[6-Cyclopropylmethoxy-5-(3,3-difluoro-azetidin-1-yl)-pyrazine-2-carbonyl]-amino}-cyclobutanecarboxylic acid methyl ester], the concentration giving a half-maximal response (EC50) in test [2] (setting [3]) stood at 20.5 nM. The same measure, in the same setting: in the case of `NC(=O)[C@@H]1CCCC[C@@H]1NC(=O)c1cnc(C2CC2)c(OCC2CC2)n1` [Example 82] it was 257 nM; in that of `NC(=O)[C@@H](NC(=O)c1cnc(N2CC(F)(F)C2)c(OCC2CC2)n1)c1ccc(Cl)cc1` [Example 68, 6-Cyclopropylmethoxy-5-(3,3-difluoro-azetidin-1-yl)-pyrazine-2-carboxylic acid [(S)-carbamoyl-(4-chloro-phenyl)-methyl]-amide], 116 nM; in that of `NC(=O)[C@@H](NC(=O)c1cnc(N2CC(F)(F)C2)c(OCC2CC2)n1)c1ccc(F)cc1` [Example 64, 6-Cyclopropylmethoxy-5-(3,3-difluoro-azetidin-1-yl)-pyrazine-2-carboxylic acid [(S)-carbamoyl-(4-fluoro-phenyl)-methyl]-amide], 31.2 nM. `NC(=O)[C@H]1CCCC[C@H]1NC(=O)c1cnc(N2CC(F)(F)C2)c(OCC2CC2)n1` (single isomer, unassigned) [Example 81] had an EC50 in test [2] of 31.2 nM. On to `CC(C)C[C@H](NC(=O)c1cnc(N2CC(F)(F)C2)c(OCC2CC2)n1)C(=O)NCC(F)(F)F` [Example 67, 6-Cyclopropylmethoxy-5-(3,3-difluoro-azetidin-1-yl)-pyrazine-2-carboxylic acid [(S)-3-methyl-1-(2,2,2-trifluoro-ethylcarbamoyl)-butyl]-amide], for which, in test [2] (setting [3]), the concentration giving a half-maximal response (EC50) was 57.6 nM. The same measure, in the same setting: as for `NC(=O)[C@@H](NC(=O)c1cnc(C2CC2)c(OCC2CC2)n1)c1ccc(F)cc1` [Example 63, 5-Cyclopropyl-6-cyclopropylmethoxy-pyrazine-2-carboxylic acid [(S)-carbamoyl-(4-fluoro-phenyl)-methyl]-amide], the figure is 96.6 nM; as for `Cc1oc(-c2ccccc2)nc1CC(C)(C)NC(=O)c1cnc(C2CC2)c(OCC2CC2)n1` [Example 71, 5-Cyclopropyl-6-cyclopropylmethoxy-pyrazine-2-carboxylic acid [1,1-dimethyl-2-(5-methyl-2-phenyl-oxazol-4-yl)-ethyl]-amide], 201 nM. On the same count and under the same terms, as for `CC(C)[C@H](CC(N)=O)NC(=O)c1cnc(N2CC(F)(F)C2)c(OCC2CC2)n1` [Example 77, 6-Cyclopropylmethoxy-5-(3,3-difluoro-azetidin-1-yl)-pyrazine-2-carboxylic acid ((S)-1-carbamoylmethyl-2-methyl-propyl)-amide], the figure is 6.5 nM; as for `Cc1nc([C@H](CC2CC2)NC(=O)c2cnc(C3CC3)c(OCC3CC3)n2)no1` [Example 65, 5-Cyclopropyl-6-cyclopropylmethoxy-pyrazine-2-carboxylic acid [(S)-2-cyclopropyl-1-(5-methyl-[1,2,4]oxadiazol-3-yl)-ethyl]-amide], 20.7 nM.

Consider `CC(C)(CCCO)NC(=O)c1cnc(C2CC2)c(OCC2CC2)n1` [Example 69, 5-Cyclopropyl-6-cyclopropylmethoxy-pyrazine-2-carboxylic acid (4-hydroxy-1,1-dimethyl-butyl)-amide], for which, in test [2] (setting [3]), the half-maximal effective concentration (EC50) is 47.4 nM. With `CC(CC(C)(C)NC(=O)c1cnc(C2CC2)c(OCC2CC2)n1)c1ccncc1` (stereo not shown) [Example 72, 5-Cyclopropyl-6-cyclopropylmethoxy-pyrazine-2-carboxylic acid (1,1-dimethyl-3-pyridin-4-yl-butyl)-amide], the concentration for a half-maximal effect (EC50) in test [2] (setting [3]) was found to be 92.6 nM. Same read-out and setting: as for `Cc1nc([C@](C)(CC2CC2)NC(=O)c2cnc(N3CC(F)(F)C3)c(OCC3CC3)n2)no1` [Example 78, (+)-6-Cyclopropylmethoxy-5-(3,3-difluoro-azetidin-1-yl)-pyrazine-2-carboxylic acid [2-cyclopropyl-1-methyl-1-(5-methyl-[1,2,4]oxadiazol-3-yl)-ethyl]-amide], the figure is 17.4 nM.

Turning to `COC(=O)[C@H](CC(C)C)NC(=O)c1cnc(N2CC(F)(F)C2)c(OCC2CC2)n1` [Example 66, (S)-2-{[6-Cyclopropylmethoxy-5-(3,3-difluoro-azetidin-1-yl)-pyrazine-2-carbonyl]-amino}-4-methyl-pentanoic acid methyl ester], the concentration giving a half-maximal response (EC50) in test [2] (setting [3]) was found to be 0.4 nM. Same read-out and setting: in the case of `Cc1nc([C@@](C)(CC2CC2)NC(=O)c2cnc(N3CC(F)(F)C3)c(OCC3CC3)n2)no1` [Example 79, (−)-6-Cyclopropylmethoxy-5-(3,3-difluoro-azetidin-1-yl)-pyrazine-2-carboxylic acid [2-cyclopropyl-1-methyl-1-(5-methyl-[1,2,4]oxadiazol-3-yl)-ethyl]-amide] it was 4 nM.

In general, EC50 refers to the midpoint of the concentration-response curve.
